Measured values taken from patent US12390437B2, “Itaconic acid derivatives and uses thereof intreating an inflammatory disease or a disease associated with an undesirable immune response” (Sitryx Therapeutics Limited, priority 2019, dated 2025).
Read-outs that look alike come from different tables or passages of the source.

What was measured:
[1] = system: IL-1β cytokine output from THP-1s; test: THP-1 AlphaLISA IL-1β cytokine assay; assay type: cell-based, human; details: read-out: IL-1β (IC50)
Protocol: Measuring Inhibitory Effects on IL-1β and IL-6 Cytokine Output from THP-1s
The cytokine inhibition profiles of compounds of formula (IW-1) were determined in a differentiated THP-1 cell assay. All assays were performed in RPMI-1640 growth medium (Gibco), supplemented with 10% fetal bovine serum (FBS; Gibco), 1% penicillin-streptomycin and 1% sodium pyruvate unless specified otherwise. The IL-1β and IL-6 cytokine inhibition assays were each run in a background of differentiated THP-1 cells as described below. All reagents described were from Sigma-Aldrich unless specified otherwise. Compounds were prepared as 10 mM DMSO stocks.
THP-1 cells were expanded as a suspension up to 80% confluence in appropriate growth medium. Cells were harvested, suspended, and treated with an appropriate concentration of phorbol 12-myristate 13-acetate (PMA) over a 72 hr period (37° C./5% CO2).
Following 72 hrs of THP-1 cell incubation, cellular medium was removed and replaced with fresh growth media containing 1% of FBS. Working concentrations of compounds were prepared separately in 10% FBS treated growth medium and pre-incubated with the cells for 30 minutes (37° C./5% CO2). Following the 30 minute compound pre-incubation, THP-1s were treated with an appropriate concentration of LPS and the THP-1s were subsequently incubated for a 24 hr period (37° C./5% CO2). An appropriate final concentration of Nigericin was then dispensed into the THP-1 plates and incubated for 1 hour (37° C./5% CO2) before THP-1 supernatants were harvested and collected in separate polypropylene 96-well holding plates.
Reagents from each of the IL-1β and IL-6 commercial kits (Perkin Elmer) were prepared and run according to the manufacturer's instructions. Subsequently, fluorescence signal detection in a microplate reader was measured (EnVision® Multilabel Reader, Perkin Elmer).
Percentage inhibition was calculated per cytokine by normalising the sample data to the high and low controls used within each plate (+/−LPS respectively). Percentage inhibition was then plotted against compound concentration and the 50% inhibitory concentration (IC50) was determined from the resultant concentration-response curve.

NRF2 = NRF2 +/-GSH activation assay (DiscoverX PathHunter NRF2 translocation kit, U2OS cells); assay type: cell-based; details: for Emax: read-out: NRF2 activation Emax; for EC50: read-out: NRF2 activation EC50
Protocol: Measuring Compound Activation Effects on the Anti-Inflammatory Transcription Factor NRF2 in DiscoverX PathHunter NRF2 Translocation Kit
Potency and efficacy of compounds of formula (IW-1) against the target of interest to activate NRF2 (nuclear factor erythroid 2-related factor 2) were determined using the PathHunter NRF2 translocation kit (DiscoverX). The NRF2 translocation assay was run using an engineered recombinant cell line, utilising enzyme fragment complementation to determine activation of the Keap1-NRF2 protein complex and subsequent translocation of NRF2 into the nucleus. Enzyme activity was quantified using a chemiluminescent substrate consumed following the formation of a functional enzyme upon PK-tagged NRF2 translocation into the nucleus.
The assay was run under either +/−GSH (glutathione) conditions to determine the attenuating activities of GSH against target compounds.
Additionally, a defined concentration of dimethyl fumarate was used as the ‘High’ control to normalise test compound activation responses to.
U2OS PathHunter eXpress cells were thawed from frozen prior to plating. Following plating, U2OS cells were incubated for 24 hrs (37° C./5% CO2) in commercial kit provided cell medium.
Following 24 hrs of U2OS incubation, cells were directly treated with an appropriate final concentration of compound, for −GSH conditions, or for +GSH conditions, an intermediate plate containing 6× working concentrations of compound stocks was prepared in a 6 mM working concentration of GSH solution (solubilised in sterile PBS). Following a 30 minute compound-GSH pre-incubation (37° C./5% CO2) for +GSH treatment, plated U2OS cells were incubated with an appropriate final concentration of compound and GSH.
Following compound (+/−GSH) treatment, the U2OS plates were incubated for a further 6 hours (37° C./5% CO2) before detection reagent from the PathHunter NRF2 commercial kit was prepared and added to test plates according to the manufacturer's instructions. Subsequently, the luminescence signal detection in a microplate reader was measured (PHERAstar®, BMG Labtech).
Percentage activation was calculated by normalising the sample data to the high and low controls used within each plate (+/−DMF). Percentage activation/response was then plotted against compound concentration and the 50% activation concentration (EC50) was determined from the plotted concentration-response curve.

[2] = Mouse pharmacokinetic study, intravenous dosing; assay type: in vivo; details: male, C57BL/6, mouse, iv, plasma, 10 mg/kg i.v., read-out: Parent compound concentration following intravenous administration
Protocol: (§1) Pharmacokinetic studies were carried out in 6-8-week-old male C57BL/6 mice having free access to food and water. Intravenous dosing was conducted at 10 mg/kg (5 mL/kg; vehicle: 10% DMSO-90% (25% HP-13-CD in water)) via tail vein injection, with sampling at 3 min, 8 min, 15 min, 30 min, 1, 2, 4, 6 and 8 hours, i.e., 9 time points in total (N=3/time point), using semi-serial bleeding for plasma. Oral compound administration, via gavage, was carried out at 100 mg/kg (10 mL/kg; vehicle: 5% DMSO-95% (0.5% HPMC+0.1% Tween 80 in water)), with sampling at 5 min, 15 min, 30 min, 1, 2, 4, 6, 8 and 24 hours, i.e., 9 time points in total (N=3/time point), using semi-serial bleeding for plasma.
(§2) For both intravenous and oral routes, the mice were restrained manually at the designated time points, with ca. 110 μL of blood being taken into K2EDTA tubes via the facial vein. Blood samples were put on ice and centrifuged to obtain plasma samples from which the concentration at each time point was measured by LC-MS/MS.

[3] = Mouse pharmacokinetic study, oral administration; assay type: in vivo; details: male, C57BL/6, mouse, plasma, po, 100 mg/kg, plasma, male C57BL/6 mice, oral gavage 100 mg/kg
Protocol: as §1, §2

[4] = Homo sapiens, THP-1, PMA-differentiated THP-1 cells, LPS 24 hr then Nigericin 1 hour
[5] = Homo sapiens, U2OS, normalised to dimethyl fumarate 'High' control, GSH condition not stated in Table 5
[6] = Homo sapiens, U2OS PathHunter cells, 6 hours, GSH condition not stated in Table 5

SMILES | IC50 [1, 4] [µM] | EC50 (NRF2; [6]) [µM] | Emax (NRF2; [5]) [%] | further results
C=C(CC(=O)OCCCCCC)C(=O)OCCc1nnn[nH]1 [Example 78, 1-(2-(1H-tetrazol-5-yl)ethyl) 4-hexyl 2-methylenesuccinate] | 4.2 | 17.7 | 177 | 
C=C(CC(=O)OC1CCCCC1)C(=O)OCCc1nnn[nH]1 [Example 128, 1-(2-(1H-tetrazol-5-yl)ethyl) 4-cyclohexyl 2-methylenesuccinate] | 32.7 | 38 | 104 | 
C=C(CC(=O)OC1CCCCCCC1)C(=O)OCCc1nnn[nH]1 [Example 130, 1-(2-(1H-tetrazol-5-yl)ethyl) 4-cyclooctyl 2-methylenesuccinate] | 16 | 29.1 | 164 | 
C=C(CC(=O)O[C@H](C)CCCCCC)C(=O)OCCc1nnn[nH]1 [Example 135, (R)-1-(2-(1H-tetrazol-5-yl)ethyl) 4-octan-2-yl 2-methylenesuccinate] | 4.2 | 11.1 | 157 | 
C=C(CC(=O)OC1CCCCCC1)C(=O)OCC(=O)O [Example 145, 2-(4-(cycloheptyloxy)-2-methylene-4-oxobutanoyloxy)acetic acid] |  |  |  | IC50 ([1]; Homo sapiens, PMA-differentiated THP-1 cells, LPS 24 hr then Nigericin 1 hour): 19.3 µM; EC50 (NRF2; Homo sapiens, U2OS, 6 h): > 100 µM; Emax (NRF2; Homo sapiens, U2OS): 7%
C=C(CC(=O)O[C@H]1[C@@H]2CC[C@H]1CN(S(C)(=O)=O)C2)C(=O)O[C@H]1[C@@H]2CC[C@H]1CN(S(C)(=O)=O)C2 [Example 156, bis((endo)-3-(methylsulfonyl)-3-azabicyclo[3.2.1]octan-8-yl) 2-methylenesuccinate] |  |  |  | IC50 [1]: 27.9 µM; EC50 (NRF2; U2OS PathHunter cells, 6 hours, GSH condition not stated in Table 5): 47.9 µM; NRF2 activation Emax (NRF2; normalised to dimethyl fumarate 'High' control, GSH condition not stated in Table 5): 63%

More lines, main results first:

IC50 [1, 4] [µM] | EC50 (NRF2; [6]) [µM] | SMILES | Emax (NRF2; [5]) [%] | further results
11.2 | 17.5 | C=C(CC(=O)OC1CCCCC1)C(=O)OC1CCN(S(C)(=O)=O)CC1 [Example 75, 4-cyclohexyl 1-(1-(methylsulfonyl)piperidin-4-yl) 2-methylenesuccinate] | 143 | 
80.6 | 36.5 | C=C(CC(=O)OCCCOc1ccccc1)C(=O)OCC(=O)O [Example 95, 2-((2-methylene-4-oxo-4-(3-phenoxypropoxy)butanoyl)oxy)acetic acid] | 122 | 
13 | 17.5 | C=C(CC(=O)OC1CCCCCCC1)C(=O)OC(C(=O)O)C(F)(F)F (stereo not shown) [Example 122, 2-((4-(cyclooctyloxy)-2-methylene-4-oxobutanoyl)oxy)-3,3,3-trifluoropropanoic acid] | 178 | 
5.7 | 4.2 | C=C(CC(=O)OC1CCCCCCC1)C(=O)OC1(CC(=O)OCC)COC1 [Example 137, 4-cyclooctyl 1-(3-(2-ethoxy-2-oxoethyl)oxetan-3-yl) 2-methylenesuccinate] | 96 | 
1.7 | 2.1 | C=C(CC(=O)OC1CCCCCCC1)C(=O)OC(CC(=O)O)C(F)(F)F (stereo not shown) [Example 144, 3-((4-(cyclooctyloxy)-2-methylene-4-oxobutanoyl)oxy)-4,4,4-trifluorobutanoic acid] | 176 | 
7.6 |  | C=C(CC(=O)OC(CCCC)CCCC)C(=O)OCC(=O)O [Example 175, 2-((2-methylene-4-(nonan-5-yloxy)-4-oxobutanoyl)oxy)acetic acid] |  | concentration at 0.05 h ([2]; time 0.05 h): 27500 ng/mL; concentration at 0.133 h ([2]; time 0.133 h): 11700 ng/mL; concentration at 0.25 h ([2]; time 0.25 h): 6110 ng/mL; concentration at 0.5 h ([2]; time 0.5 h): 1190 ng/mL; concentration at 1 h ([2]; time 1 h): 181 ng/mL; concentration at 2 h ([2]; time 2 h): 32 ng/mL; concentration at 4 h ([2]; time 4 h): < 4 ng/mL; concentration at 6 h ([2]; time 6 h): < 4 ng/mL; concentration at 8 h ([2]; time 8 h): < 4 ng/mL; concentration at 0.083 h ([3]; 0.083 h, read-out: Parent compound concentrations following oral administration, Time 0.083 h): 39100 ng/mL; concentration at 0.25 h ([3]; 0.25 h, read-out: Parent compound concentrations following oral administration, Time 0.25 h): 19500 ng/mL; concentration at 0.5 h ([3]; 0.5 h, read-out: Parent compound concentrations following oral administration, Time 0.5 h): 18200 ng/mL; concentration at 1 h ([3]; 1 h, read-out: Parent compound concentrations following oral administration, Time 1 h): 5520 ng/mL; concentration at 2 h ([3]; 2 h, read-out: Parent compound concentrations following oral administration, Time 2 h): 1410 ng/mL; concentration at 4 h ([3]; 4 h, read-out: Parent compound concentrations following oral administration, Time 4 h): 2000 ng/mL; concentration at 6 h ([3]; 6 h, read-out: Parent compound concentrations following oral administration, Time 6 h): 784 ng/mL; concentration at 8 h ([3]; 8 h, read-out: Parent compound concentrations following oral administration, Time 8 h): 231 ng/mL; concentration at 24 h ([3]; 24 h, read-out: Parent compound concentrations following oral administration, Time 24 h): < 4 ng/mL
